Read-outs that look alike come from different tables or passages of the source.
What was measured:
hiPSC-CM EHTs = assay: EHT contractility with beat rate slowed by 300 nM ivabradine and electrical pacing 0.5-2.0 Hz; format: cell-based, human; conditions: for CA response: EHTs with 300 nM ivabradine, paced, only at 0.5 and 0.7 Hz, sometimes at 1 Hz, never at 1.5 or 2 Hz, high concentration bolus
Experimental: We extended these studies to the 3D EHT platform, this time slowing spontaneous beating to < 0.5 Hz with 300 nM ivabradine, a pharmacological blocker of the “funny” If current ([Bois et al., 1996]). […] Whereas force-frequency relationships was negative above 1.5 Hz, it was positive between 0.5 and 1.5 Hz, evidenced by a 147% increase in force generation concurrent with significant shortening of CT and RT (Supplementary Figure 6). We therefore re-evaluated 6 of the PIs in the presence of 300 nM ivabradine with electrical pacing at 0.5, 0.7, 1.0, 1.5, and 2.0 Hz. These also included epinephrine, levosimendan, and pimobendan, which had been incorrectly predicted by EHT:R-PAT and/or EHT:ERC platform-cell combinations. […] Thus, in both 2D and 3D configurations, lower beating frequencies led to increased predictivity for PIs.
Figure 5. Slowed beat rate increases the predictivity of positive inotropes (PIs) in 3D engineered heart tissues (EHTs). Contraction analysis was carried out using EHTs with 6 of the PIs from the drug test set: epinephrine (Epi), forskolin (For), levosimendan (Lev), pimobendan (Pim), dobutamine (Dob), and milrinone (Mil) which had been predicted with variable accuracy (Figure 4A, web tool). […] Scatter plots show percentage changes relative to baseline at respective frequency. Averaged peaks for force are shown for baseline (BL, black peaks) versus after treatment in EHTs paced at 0.5 Hz (blue peaks) or 2.0 Hz (red peaks). Dunnett’s stats versus baseline at respective frequency: *p < .05; **p < .01; ***p < .001; ****p < .0001.
Supplementary Figure 6. Positive force frequency relationship in EHTs paced between 0.5 and 1.5 Hz. Spontaneous beat rate of EHTs was reduced by 3 hour pre-treatment with 300 nM ivabradine, an If current inhibitor. […] CA increased from 0.5 to 1.5 Hz but plateaued and declined at higher frequencies. These changes were reflected in the CT and RT data. Dunnett's stats vs vehicle control: *, P<0.05; **, P<0.01; ***, P<0.001; ****, P<0.0001.

R-PAT hiPSC-CMs = assay: CO:R-PAT contractility, refined conditions (RPMI-B27, slowed beat rate); format: cell-based, human; conditions: analysis of different stages of relaxation; platform taken from context (CO:R-PAT)
Description: The hiPSC-CMs used were R-PAT (derived and differentiated in house as described previously) ([Mosqueira et al., 2018]; [Smith et al., 2018]), and iCell^2 and Pluricyte (purchased from Cellular Dynamics International and Ncardia). Manufacturer instructions were followed for the commercial hiPSC lines. For iCell^2, seeding was at 25 000 cells into each well of 96-well plates (Nunclon Delta Surface; Thermo, 167008) and then maintained for 10 days before use in drug evaluation studies. The same plates were used for R-PAT hiPSC-CMs, which were seeded at 40 000 cells/well and maintained until days 20 and 21 of differentiation before use. For Pluricyte hiPSC-CMs, seeding was at 35 000 cells into each well of 96-well plates (Greiner Bio-One; 655087) and then maintained for 8 days before use. […]
hiPSC-CMs in 96-well plate were transiently loaded in 50 µl/well of SFM containing FluoVolt (1:200 part B, 1:2000 part A; Life Tech, F10488) for 20 min at 37°C and 5% CO2. […] Electrophysiology data were analyzed using CellOPTIQ proprietary software of Clyde Biosciences and were normalized to a maximum amplitude of 1 and minimum of 0 to standardize height for comparison of traces created in OriginPro (OriginLab version 7.5). Contractility data were analyzed based on pixel displacement using an ImageJ plug-in. […]

[1] = cited from earlier work; for FTPC: free therapeutic plasma concentration, Refs of Supplementary Table 1; for FPTC (free plasma therapeutic concentration): ref Supplementary Table 1
cardiac contractility = conditions: cited from earlier work; for EC50: read-out: Expected effect on contractility in isolated cardiomyocytes/heart muscles, EC50; for NIE: ref (Perez et al. 1995), (Boldt et al. 2010), (Bois et al. 1996), (Mesirca et al. 2014), (Choi et al. 2016)
heart = system: heart; design: method as in Refs column of Supplementary Table 1; conditions: Refs of Supplementary Table 1; cited from earlier work
hiPSC-CMs = system: hiPSC-CMs; design: method as in Zhao et al., 2019; conditions: hiPSC-CMs under loaded conditions; ref Zhao et al., 2019; cited from earlier work
PDE3 = system: PDE3; design: method as in Refs column of Supplementary Table 1; conditions: Refs of Supplementary Table 1; read-out: PDE3 inhibitor IC50; cited from earlier work
[2] = system: adult rabbit ventricular cardiomyocytes; assay: CellOPTIQ (CO) contractility, adult rabbit ventricular cardiomyocytes; format: cell-based; conditions: isolated rabbit myocytes; not reported in any hiPSC-CM platform
Experimental: Hearts were removed and perfused retrogradely at 25 ml⋅min^−1 (37°C) with a modified KH solution containing 0.75 mmol/l [Ca^2+] for 5 min, followed by a nominally Ca^2+-free KH solution with 0.1 mmol/l EGTA for 5 min. Hearts were then perfused with KH solution containing 0.24 mmol/l [Ca^2+], 1 mg/ml collagenase (type I), and 0.06 mg/ml protease (type XIV). After approximately 4–5 min, enzyme was removed and the left ventricular free wall was then cut into strips in the recirculated enzyme solution containing 1% bovine serum albumin before being mixed to yield a single cell suspension. Cells were maintained in either Ca^2+-free KH solution or 1 mmol/l Ca^2+ (via stepwise increments) until use. Intact cardiomyocytes in 1.8 mmol/l modified Ca^2+ KH solution were loaded with FluoVolt (Thermo Fisher Scientific) at 1:3000 dilution for 10 min. The incubation medium was removed and the cells resuspended in a modified KH solution.
Cardiomyocytes were allowed to settle on a coverslip in a bath (35 mm petri-dish) at 37°C. […] A parallel set of vehicle (DMSO) time control experiments were also performed FluoVolt fluorescence (490 nm excitation) was measured at a sampling rate of 10 KHz, whereas the image was recorded on a CCD camera at 100 Hz frame rate using > 700 nm light. […]

[3] = isolated cardiomyocytes/heart muscles, Refs of Supplementary Table 1

Structure (SMILES) | CA response (hiPSC-CM EHTs) | relaxation analysis at 50% relaxation (R-PAT hiPSC-CMs) | FTPC [1] | FPTC (free plasma therapeutic concentration) [1] | EC50 (cardiac contractility; [3]) | spontaneous beating of EHTs (hiPSC-CM EHTs; 300 nM ivabradine) | relaxation analysis at 80% relaxation (R-PAT hiPSC-CMs) | NIE (cardiac contractility; guinea pig PM, at 100 µM) | NIE (cardiac contractility; guinea pig atria, at 100 µM) | NIE (cardiac contractility; human trabeculae at 100 µM) | Expected effect on contractility in isolated cardiomyocytes/heart muscles (cardiac contractility; [3]) | Expected cardiac effects in vivo (heart) | inotropy in Biowire II constructs (hiPSC-CMs) | IC50 (PDE3) | PCl+PL (cardiac contractility; [3]) | Small PI (cardiac contractility; [3]) | spontaneous diastolic SR Ca2+ release [2]
CC(CCc1ccc(O)cc1)NCCc1ccc(O)c(O)c1 (centres unmarked) [Dobutamine] | increased contraction amplitude | positive lusitropy | 0.07 to 1 µM | 0.07 to 1 µM | 1000 to 3000 nM | – | – | – | – | – | – | – | – | – | – | – | –
COc1cc2c(cc1OC)CC(=O)N(CCCN(C)C[C@H]1Cc3cc(OC)c(OC)cc31)CC2 [Ivabradine] | – | – | 0.01 to 0.1 µM | 0.01 to 0.1 µM | – | < 0.5 Hz | late relaxation deficit | -60% | -13% | -38% | None, NC at >10 µM (spontaneously beating preps), NIE (-13/-60% in guinea pig atria/PM, -38% human trabeculae at 100 µM); PI in mouse left atria and 30% of human trabeculae | – | – | – | – | – | –
Cc1[nH]c(=O)c(C#N)cc1-c1ccncc1 [Milrinone] | increased contraction amplitude | – | 0.1 to 0.15 µM | 0.1 to 0.15 µM | 60000 nM | – | – | – | – | – | Small PI, PC#, PCl, PL (smaller than ISO) | PI, PC (more heart rate increase and RR decrease than dobutamine) | positive inotropy | – | – | – | –
C[C@@H]1CC(=O)NN=C1c1ccc(NN=C(C#N)C#N)cc1 [Levosimendan] | increased contraction amplitude | – | 0.026 to 0.35 µM | 0.026 to 0.35 µM | ~100 nM | – | – | – | – | – | Small PI (~50%), PC#, PCl+PL (14%) | PI, PC (more heart rate increase and RR decrease than dobutamine) | – | 25 nM | 14% | ~50% | –
C=C[C@@]1(C)CC(=O)[C@]2(O)[C@@]3(C)[C@@H](O)CCC(C)(C)[C@@H]3[C@H](O)[C@H](OC(C)=O)[C@@]2(C)O1 [Forskolin] | increased contraction amplitude | – | 0.012 to 0.024 µM | 0.012 to 0.024 µM | 5000 to 10000 nM | – | – | – | – | – | – | PI, PC | – | – | – | – | spontaneous diastolic Ca^2+ release and associated diastolic shortening was observed
